Patent US8415299B2, “Methods for improved avian performance” (priority 2004, dated 2013)
Like-named read-outs stand apart in the source and are kept apart here.

What was measured:
[1] = system: 102-week old Hy-Line W-36 White Leghorn hens
Experimental: Experiment 2. […] The photoperiod was 17 hours of light per day (0330 hours to 2030 hours).
The objective was to use T4 to humanely induce molting in hens that are continuously provided with ad libitum access to palatable feed meeting or exceeding all National Research Council (1994) standards. Developing a fully efficacious yet affordable molting protocol was predicated on determining the minimum effective level for T4 supplementation. Factors that potentially may affect the required level of T4 supplementation include: (1) uncertainty regarding the efficiency of T4 absorption by the gastrointestinal tract, (2) the possibility that continuous dietary ingestion of T4 could trigger substantially different biological responses when compared single daily injections, and (3) the likelihood that daily T4 intake would diminish in parallel with molt-related reductions in feed intake associated with cessation in egg production. A spontaneous and voluntary loss of appetite (anorexia) commonly accompanies seasonal molting and broodiness in a variety of avian species (Berry, 2003; Webster, 2003). Accordingly, the responses of hens to diets containing 10, 20, and 40 mg T4/kg, to bracket the anticipated range of T4 needed to cause an effective molt, were determined.

[2] = system: turkey breeder hens; assay: Experiment 7: molting of turkey breeder hens with dietary L-thyroxine, porcine thyroid powder or thyroactive iodinated casein, 10 days; assay type: in vivo; conditions: 10, 20, or 40 mg T4/kg diet
Text: Experiment 7. Molting of Turkey Breeder Hens with Dietary L-Thyroxine, PorcineThyroid Powder, or Thyroactive Iodinated Casein. Turkey breeder hens were molted with various dietary thyroxine treatments at Diamond K Research, […]. (Jun. 20-Jul. 1, 2005).

[3] = system: 96-week old Hy-Line W-36 White Leghorn hens
Text: Experiment 3. […] The photoperiod serves as the primary environmental signal that regulates reproductive function in many avian species. Increasing the photoperiod promotes maturation of the gonads and reproductive tract, whereas reducing the photoperiod causes the gonads and reproductive tract to regress and molting to occur.

[4] = system: 66-week-old caged laying hens; conditions: cited from earlier work
[5] = 40 mg T4/kg test diet for 10 days
[6] = 20 mg/kg feed, 8 hr L, Day 30-34
[7] = 20 mg/kg feed, 8 hr L, Days 13-15
[8] = 20 mg/kg feed, 8 hr L, Days 16-22
[9] = 20 mg/kg feed, 17 hr L, Day 30-34
[10] = 20 mg/kg feed, 17 hr L, Days 13-15
[11] = 20 mg/kg feed, 17 hr L, Days 16-22
[12] = 40 mg T4/kg test diet, Chamber 6 (17 hr light)
[13] = 40 mg/kg feed, 8 hr L, Day 30-34
[14] = 40 mg/kg feed, 8 hr L, Days 13-15
[15] = 40 mg/kg feed, 8 hr L, Days 16-22
[16] = 40 mg/kg feed, 17 hr L, Day 30-34
[17] = 40 mg/kg feed, 17 hr L, Days 13-15

N[C@@H](Cc1cc(I)c(Oc2cc(I)c(O)c(I)c2)c(I)c1)C(=O)O [L-thyroxine, 3,5,3′,5′-tetraiodothyronine]
Time to onset of molt after T4 feeding was initiated ([1]; 10 mg T4 kg Group, 10 days on test diets, half of the hens): 11 days
Feed consumption change from days 2-4 (% FCC) ([1]; 10 mg/kg feed 6 d, Day 11-14): −19.7%
Feed consumption (FC) ([1]; 10 mg/kg feed 6 d, Days 2-4 (pre-treatment)): 101.3 g/hen/d
Feed consumption (FC) ([1]; 10 mg/kg feed 6 d, Days 5-7): 60.0 g/hen/d
Feed consumption change from days 2-4 (% FCC) ([1]; 10 mg/kg feed 6 d, Days 5-7): −40.8%
Feed consumption (FC) ([1]; 10 mg/kg feed 6 d, Days 8-10): 35.3 g/hen/d
Feed consumption change from days 2-4 (% FCC) ([1]; 10 mg/kg feed 6 d, Days 8-10): −65.2%
Feed consumption (FC) ([1]; 10 mg/kg feed 10 d, Day 11-14): 47.3 g/hen/d
Feed consumption change from days 2-4 (% FCC) ([1]; 10 mg/kg feed 10 d, Day 11-14): −43.7%
Feed consumption (FC) ([1]; 10 mg/kg feed 10 d, Days 2-4 (pre-treatment)): 84.0 g/hen/d
Feed consumption (FC) ([1]; 10 mg/kg feed 10 d, Days 5-7): 56.0 g/hen/d
Feed consumption change from days 2-4 (% FCC) ([1]; 10 mg/kg feed 10 d, Days 5-7): −33.3%
Feed consumption (FC) ([1]; 10 mg/kg feed 10 d, Days 8-10): 33.7 g/hen/d
Feed consumption change from days 2-4 (% FCC) ([1]; 10 mg/kg feed 10 d, Days 8-10): −59.9%
Feed consumption (FC) ([1]; 20 mg/kg feed 6 d, Day 11-14): 73.7 g/hen/d
Feed consumption change from days 2-4 (% FCC) ([1]; 20 mg/kg feed 6 d, Day 11-14): −28.4%
Feed consumption (FC) ([1]; 20 mg/kg feed 6 d, Days 2-4 (pre-treatment)): 103.0 g/hen/d
Feed consumption (FC) ([1]; 20 mg/kg feed 6 d, Days 5-7): 42.0 g/hen/d
Feed consumption change from days 2-4 (% FCC) ([1]; 20 mg/kg feed 6 d, Days 5-7): −59.2%
Feed consumption (FC) ([1]; 20 mg/kg feed 6 d, Days 8-10): 33.7 g/hen/d
Feed consumption change from days 2-4 (% FCC) ([1]; 20 mg/kg feed 6 d, Days 8-10): −67.3%
Feed consumption (FC) ([1]; 20 mg/kg feed 10 d, Day 11-14): 32.7 g/hen/d
Feed consumption change from days 2-4 (% FCC) ([1]; 20 mg/kg feed 10 d, Day 11-14): −72.9%
Feed consumption (FC) ([1]; 20 mg/kg feed 10 d, Days 2-4 (pre-treatment)): 120.7 g/hen/d
Feed consumption (FC) ([1]; 20 mg/kg feed 10 d, Days 5-7): 54.7 g/hen/d
Feed consumption change from days 2-4 (% FCC) ([1]; 20 mg/kg feed 10 d, Days 5-7): −54.7%
Feed consumption (FC) ([1]; 20 mg/kg feed 10 d, Days 8-10): 30.0 g/hen/d
Feed consumption change from days 2-4 (% FCC) ([1]; 20 mg/kg feed 10 d, Days 8-10): −75.1%
Hen-day egg production ([1]; 20 mg/kg feed 10 d, day 4 (pre-treatment)): 75%
Hen-day egg production ([1]; 20 mg/kg feed 10 d, day 30): 25%
Loss of initial body weight [1, 5]: approximately 21%
Reduction of feed intake [1, 5]: approximately 85%
Feed consumption (FC) ([1]; 40 mg/kg feed 6 d, Day 11-14): 46.7 g/hen/d
Feed consumption change from days 2-4 (% FCC) ([1]; 40 mg/kg feed 6 d, Day 11-14): −52.5%
Feed consumption (FC) ([1]; 40 mg/kg feed 6 d, Days 2-4 (pre-treatment)): 98.3 g/hen/d
Feed consumption (FC) ([1]; 40 mg/kg feed 6 d, Days 5-7): 36.7 g/hen/d
Feed consumption change from days 2-4 (% FCC) ([1]; 40 mg/kg feed 6 d, Days 5-7): −62.7%
Feed consumption (FC) ([1]; 40 mg/kg feed 6 d, Days 8-10): 13.7 g/hen/d
Feed consumption change from days 2-4 (% FCC) ([1]; 40 mg/kg feed 6 d, Days 8-10): −86.1%
Hen-day egg production ([1]; 40 mg/kg feed 6 d, day 20): 25%
Hen-day egg production ([1]; 40 mg/kg feed 6 d, day 22): 25%
Hen-day egg production ([1]; 40 mg/kg feed 6 d, day 24): 50%
Feed consumption (FC) ([1]; 40 mg/kg feed 10 d, Day 11-14): 19.3 g/hen/d
Feed consumption change from days 2-4 (% FCC) ([1]; 40 mg/kg feed 10 d, Day 11-14): −83.4%
Feed consumption (FC) ([1]; 40 mg/kg feed 10 d, Days 2-4 (pre-treatment)): 116.3 g/hen/d
Feed consumption (FC) ([1]; 40 mg/kg feed 10 d, Days 5-7): 37.3 g/hen/d
Feed consumption change from days 2-4 (% FCC) ([1]; 40 mg/kg feed 10 d, Days 5-7): −67.9%
Feed consumption (FC) ([1]; 40 mg/kg feed 10 d, Days 8-10): 22.0 g/hen/d
Feed consumption change from days 2-4 (% FCC) ([1]; 40 mg/kg feed 10 d, Days 8-10): −81.1%
Hen-day egg production ([1]; 40 mg/kg feed 10 d, day 12): 0%
Hen-day egg production ([1]; 40 mg/kg feed 10 d, day 14): 0%
Hen-day egg production ([1]; 40 mg/kg feed 10 d, day 16): 0%
Hen-day egg production ([1]; 40 mg/kg feed 10 d, day 18): 0%
Hen-day egg production ([1]; 40 mg/kg feed 10 d, day 20): 0%
Mortality ([1]; 10, 20, 40 mg T4/kg feed, 6 or 10 days): No mortality occurred in any of the Groups
Time within which egg production was consistently reduced ([1]; 20 and 40 mg T4/kg feed): ≤ 4 days
Effectiveness at regressing reproductive tracts [2]: not as effective as porcine thyroid powder
Molting ([3]; 20 mg T4/kg groups, either chamber): None of the hens in the Control groups or 20 mg T4/kg groups molted in either chamber
Time within which egg production was significantly reduced ([3]; 20 mg T4/kg, Chamber 6 (17 hr light)): ≤ 8 days
Hen-day egg production ([3]; 20 mg/kg feed 12 d from day 13, 8 hr L, day 30): 6.3%
Feed consumption (FC) [3, 6]: 82.5 g/hen/d
Feed consumption change from days 1-12 (% FCC) [3, 6]: −32.0%
Feed consumption (FC) ([3]; 20 mg/kg feed, 8 hr L, Days 1-12 (pre-treatment)): 121.3 g/hen/d
Feed consumption (FC) [3, 7]: 41.8 g/hen/d
Feed consumption change from days 1-12 (% FCC) [3, 7]: −65.5%
Feed consumption (FC) [3, 8]: 44.5 g/hen/d
Feed consumption change from days 1-12 (% FCC) [3, 8]: −63.3%
Feed consumption (FC) [3, 9]: 135.0 g/hen/d
Feed consumption change from days 1-12 (% FCC) [3, 9]: 11.1%
Feed consumption (FC) ([3]; 20 mg/kg feed, 17 hr L, Days 1-12 (pre-treatment)): 121.5 g/hen/d
Feed consumption (FC) [3, 10]: 58.0 g/hen/d
Feed consumption change from days 1-12 (% FCC) [3, 10]: −52.3%
Feed consumption (FC) [3, 11]: 51.8 g/hen/d
Feed consumption change from days 1-12 (% FCC) [3, 11]: −57.4%
Hens that molted fully ([3]; 40 mg T4/kg Group, Chamber 5 (8 hr light), 7/12): 58%
Loss of initial body weight [3, 12]: approximately 18%
Reduction of feed intake [3, 12]: approximately 65%
Time within which egg production was significantly reduced ([3]; 40 mg T4/kg, Chamber 6 (17 hr light)): ≤ 6 days
Hens that molted fully ([3]; 40 mg T4 kg Group, Chamber 6 (17 hr light)): 100%
Hen-day egg production ([3]; 40 mg/kg feed 12 d from day 13, 17 hr L, day 22): 0.0%
Hen-day egg production ([3]; 40 mg/kg feed 12 d from day 13, 17 hr L, day 24): 0.0%
Hen-day egg production ([3]; 40 mg/kg feed 12 d from day 13, 17 hr L, day 26): 0.0%
Hen-day egg production ([3]; 40 mg/kg feed 12 d from day 13, 17 hr L, day 28): 0.0%
Hen-day egg production ([3]; 40 mg/kg feed 12 d from day 13, 17 hr L, day 30): 0.0%
Hen-day egg production ([3]; 40 mg/kg feed 12 d from day 13, 17 hr L, day 32): 0.0%
Hen-day egg production ([3]; 40 mg/kg feed 12 d from day 13, 17 hr L, day 34): 0.0%
Feed consumption (FC) [3, 13]: 104.8 g/hen/d
Feed consumption change from days 1-12 (% FCC) [3, 13]: −9.5%
Feed consumption (FC) ([3]; 40 mg/kg feed, 8 hr L, Days 1-12 (pre-treatment)): 115.8 g/hen/d
Feed consumption (FC) [3, 14]: 36.8 g/hen/d
Feed consumption change from days 1-12 (% FCC) [3, 14]: −68.2%
Feed consumption (FC) [3, 15]: 35.3 g/hen/d
Feed consumption change from days 1-12 (% FCC) [3, 15]: −69.5%
Feed consumption (FC) [3, 16]: 93.3 g/hen/d
Feed consumption change from days 1-12 (% FCC) [3, 16]: −9.7%
Feed consumption (FC) ([3]; 40 mg/kg feed, 17 hr L, Days 1-12 (pre-treatment)): 103.3 g/hen/d
Feed consumption (FC) [3, 17]: 42.0 g/hen/d
Feed consumption change from days 1-12 (% FCC) [3, 17]: −59.3%
Feed consumption change from days 1-12 (% FCC) ([3]; 40 mg/kg feed, 17 hr L, Days 16-22): −63.7%
Mortality ([3]; 20, 40 mg T4/kg feed 12 days): No mortality occurred in any of the Groups
Time within which egg production was significantly reduced ([3]; 20 and 40 mg T4/kg, Chamber 5 (8 hr light)): ≤ 4 days
Days to target body weight (30% body weight loss) ([4]; 10 mg/kg feed in grape pomace diet after 1-day feed withdrawal): 16 days
Days to target body weight (30% body weight loss) ([4]; corn diet with or without 10 mg/kg, 1-day fast or no fast): 28 days
